Data on 25 molecules can be found in patent US20160052926A1, “NOVEL PYRIMIDINE AND PYRIDINE COMPOUNDS AND USAGE THEREOF” (HUTCHISON MEDIPHARMA LIMITED, priority 2013, published 2016).

One test concerns the target Recombinant human FGFR1 (Homo sapiens, UniProt P11362). Description: Transcreener Kinase Assay of FGFR1. It counts as biochemical. Particulars: read-out: FGFR1 (FP) IC50.
The next test deals with KG-1. Description: Cellular Proliferation Assay (Cell Counting Kit-8), KG-1. Particulars: Homo sapiens, KG1 cells, 72 hours. It counts as cell-based. In outline: (§1)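 Proliferation was read as OD at 450 nm after 1 h with CCK-8, following 72 h drug exposure at 37 °C, 5% CO2. Inhibition was calculated against cells in 0.5% DMSO minus medium blank, and the 50% point reported. The compound series (10–0.004 μM, pre-addition, in 5% DMSO) was added one day after plating KG-1, SNU-16 and RT-112 at 30,000, 5,000 and 1,000 cells/well respectively.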
(Tetrazolium dyes change colour on reduction, which living cells bring about.)

The next test has as its target Recombinant human FGFR2 (Homo sapiens, UniProt P21802). Nature of the test: Transcreener Kinase Assay of FGFR2. Particulars: read-out: FGFR2 (FP) IC50. It is filed as biochemical.
A further test deals with FGFR3 kinase (Homo sapiens, UniProt P22607). Description: Z-Lyte Kinase Assay of FGFR3. It is filed as biochemical. Summed up: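 FRET peptide-cleavage format: 1 h kinase reaction at RT (25-30[…]), then 1 h protease development, then stop and dual-emission read (Ex400, Em445/520 nm). Working solutions: kinase 0.7 μg/ml, Tyr 4 peptide 4 μM, ATP 300 uM in 1.33× buffer; eight compound concentrations from 1 μM, 2% DMSO final.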

In the next test the test system is SNU-16. Description: Cellular Proliferation Assay (Cell Counting Kit-8), SNU-16. It is filed as cell-based. Particulars: Homo sapiens, SNU-16 cells, 72 hours. Summed up:
as §1

The subject of a further test is RT-112. Description: Cellular Proliferation Assay (Cell Counting Kit-8), RT-112. It counts as cell-based. The settings on record: Homo sapiens, RT-112 cells, 72 hours. Summed up:
as §1

Recombinant human FGFR2, sequence (P21802 22-821): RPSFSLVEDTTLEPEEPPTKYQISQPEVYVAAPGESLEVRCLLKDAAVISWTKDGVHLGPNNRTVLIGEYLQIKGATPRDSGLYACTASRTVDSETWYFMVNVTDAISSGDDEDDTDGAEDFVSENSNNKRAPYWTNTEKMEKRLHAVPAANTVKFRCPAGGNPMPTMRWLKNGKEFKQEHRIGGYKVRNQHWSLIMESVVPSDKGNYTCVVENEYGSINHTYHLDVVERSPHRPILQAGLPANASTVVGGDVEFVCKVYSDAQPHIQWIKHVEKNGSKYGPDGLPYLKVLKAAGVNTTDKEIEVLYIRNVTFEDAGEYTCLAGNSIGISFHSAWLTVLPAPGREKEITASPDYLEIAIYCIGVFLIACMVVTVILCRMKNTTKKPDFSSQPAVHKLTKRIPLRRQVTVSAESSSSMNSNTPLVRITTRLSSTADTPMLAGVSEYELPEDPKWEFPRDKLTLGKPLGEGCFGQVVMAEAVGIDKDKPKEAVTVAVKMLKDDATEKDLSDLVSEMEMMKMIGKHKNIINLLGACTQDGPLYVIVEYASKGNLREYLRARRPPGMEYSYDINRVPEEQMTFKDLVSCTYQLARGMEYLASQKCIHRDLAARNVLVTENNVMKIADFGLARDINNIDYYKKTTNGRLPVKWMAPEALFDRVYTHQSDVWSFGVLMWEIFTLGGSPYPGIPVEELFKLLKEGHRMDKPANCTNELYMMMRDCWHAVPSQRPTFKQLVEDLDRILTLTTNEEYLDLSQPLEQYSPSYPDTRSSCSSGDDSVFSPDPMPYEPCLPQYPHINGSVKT
Recombinant human FGFR1, sequence (P11362 22-822): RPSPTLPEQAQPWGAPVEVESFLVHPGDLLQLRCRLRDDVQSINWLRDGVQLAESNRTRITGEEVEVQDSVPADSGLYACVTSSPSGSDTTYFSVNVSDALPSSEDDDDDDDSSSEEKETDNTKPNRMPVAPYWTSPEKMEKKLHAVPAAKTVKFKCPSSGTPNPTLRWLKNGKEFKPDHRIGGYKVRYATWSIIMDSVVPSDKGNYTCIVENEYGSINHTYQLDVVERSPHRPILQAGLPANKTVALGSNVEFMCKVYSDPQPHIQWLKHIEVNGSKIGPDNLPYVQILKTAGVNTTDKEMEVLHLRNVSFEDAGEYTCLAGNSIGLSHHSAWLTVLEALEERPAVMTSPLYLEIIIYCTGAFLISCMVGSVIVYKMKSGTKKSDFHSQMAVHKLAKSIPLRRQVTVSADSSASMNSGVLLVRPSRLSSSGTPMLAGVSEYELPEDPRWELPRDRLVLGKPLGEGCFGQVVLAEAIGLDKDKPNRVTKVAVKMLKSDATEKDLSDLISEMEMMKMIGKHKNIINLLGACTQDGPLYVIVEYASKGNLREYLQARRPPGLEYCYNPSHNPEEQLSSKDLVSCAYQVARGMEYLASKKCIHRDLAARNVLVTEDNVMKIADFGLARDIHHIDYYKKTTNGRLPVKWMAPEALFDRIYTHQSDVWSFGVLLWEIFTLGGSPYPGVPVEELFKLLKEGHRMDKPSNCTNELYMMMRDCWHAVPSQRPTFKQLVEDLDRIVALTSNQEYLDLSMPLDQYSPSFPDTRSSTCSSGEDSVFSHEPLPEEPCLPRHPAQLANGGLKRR
FGFR3 kinase, sequence (P22607 23-806): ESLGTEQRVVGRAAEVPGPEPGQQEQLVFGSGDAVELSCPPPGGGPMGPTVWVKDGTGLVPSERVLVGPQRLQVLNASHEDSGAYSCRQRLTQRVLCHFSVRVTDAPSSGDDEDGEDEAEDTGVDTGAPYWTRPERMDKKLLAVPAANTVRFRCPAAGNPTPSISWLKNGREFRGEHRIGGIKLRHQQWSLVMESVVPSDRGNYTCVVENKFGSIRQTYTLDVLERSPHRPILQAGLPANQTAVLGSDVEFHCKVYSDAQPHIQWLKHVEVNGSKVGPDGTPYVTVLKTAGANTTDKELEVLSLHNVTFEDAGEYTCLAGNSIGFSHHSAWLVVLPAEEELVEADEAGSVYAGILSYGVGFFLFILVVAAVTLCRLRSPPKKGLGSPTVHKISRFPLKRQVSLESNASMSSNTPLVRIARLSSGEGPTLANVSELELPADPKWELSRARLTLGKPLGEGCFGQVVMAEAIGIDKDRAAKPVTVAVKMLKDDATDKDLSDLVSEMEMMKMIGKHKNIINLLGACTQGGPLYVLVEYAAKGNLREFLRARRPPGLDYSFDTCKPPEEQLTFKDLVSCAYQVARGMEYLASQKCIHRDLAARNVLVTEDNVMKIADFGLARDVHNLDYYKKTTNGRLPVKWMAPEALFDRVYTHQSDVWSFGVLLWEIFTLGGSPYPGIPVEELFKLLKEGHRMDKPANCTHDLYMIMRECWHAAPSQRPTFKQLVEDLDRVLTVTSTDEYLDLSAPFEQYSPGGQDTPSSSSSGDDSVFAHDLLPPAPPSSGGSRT

Broadly, the IC50 is the midpoint of a concentration-inhibition curve. `CCN1CCC[C@H](n2cc(Nc3ncc(CCc4cc(C(=O)NC)cc(OC)c4F)cn3)cn2)C1` [Compound 175]: the IC50 at Recombinant human FGFR1 came out at 0.009 µM; in the test on KG-1 it was 0.023 µM; on Recombinant human FGFR2, 0.006 µM; against FGFR3 kinase, 0.008 µM; with SNU-16, 0.014 µM; with RT-112, 0.057 µM.
For the molecule `CCN1CCC(n2cc(Nc3ncc(CCc4cc(C(=O)NC)cc(OC)c4F)cn3)cn2)CC1` [Compound 176], the IC50 on Recombinant human FGFR1 was 0.007 µM; in the test on KG-1, 0.066 µM; at Recombinant human FGFR2 it was 0.007 µM; against FGFR3 kinase, 0.008 µM; in the test with SNU-16 it was 0.017 µM; with RT-112, 0.1 µM.
With `CNC(=O)c1cc(CCc2cnc(Nc3cnn(C4CCN(C)CC4)c3)nc2)c(Cl)c(OC)c1` [Compound 177], the IC50 was determined as 0.006 µM at Recombinant human FGFR1; 0.025 µM in the test with KG-1; 0.005 µM on Recombinant human FGFR2; 0.009 µM against FGFR3 kinase; 0.019 µM with SNU-16; 0.086 µM in the test on RT-112.
As for `CCN1CCC(n2cc(Nc3ncc(CCc4cc(C(=O)NC)cc(OC)c4Cl)cn3)cn2)CC1` [Compound 178], the IC50 on Recombinant human FGFR1 is 0.014 µM; with KG-1, 0.072 µM; at Recombinant human FGFR2, 0.015 µM; against FGFR3 kinase it was 0.018 µM; with SNU-16, 0.027 µM; in the test with RT-112 it was 0.186 µM.
As for `CCn1cc(Nc2ncc(CCc3cc(C(=O)NC)cc(OC)c3C#N)cn2)cn1` [Compound 179, 4-cyano-3-(2-(2-((1-ethyl-1H-pyrazol-4-yl)amino)pyrimidin-5-yl)ethyl)-5-methoxy-N-methylbenzamide], the concentration for half-maximal inhibition (IC50) on Recombinant human FGFR1 was determined as 0.069 µM; with KG-1 it was 0.284 µM; at Recombinant human FGFR2 it was 0.056 µM; against FGFR3 kinase, 0.091 µM; with SNU-16, 0.202 µM; in the test on RT-112, 0.952 µM.
In the case of `CCn1cc(Nc2ncc(OCc3cc(C(=O)NC)cc(OC)c3F)cn2)cn1` [Compound 181, 3-(((2-((1-ethyl-1H-pyrazol-4-yl)amino)pyrimidin-5-yl)oxy)methyl)-4-fluoro-5-methoxy-N-methylbenzamide], the IC50 on Recombinant human FGFR1 was determined as 0.019 µM; in the test on KG-1 it was 0.026 µM; at Recombinant human FGFR2, 0.005 µM; against FGFR3 kinase it was 0.009 µM; in the test on SNU-16 it was 0.008 µM; with RT-112, 0.035 µM.
Turning to `CNC(=O)c1cc(COc2cnc(Nc3cnn(C)c3)nc2)c(F)c(OC)c1` [Compound 182], the IC50 was 0.027 µM on Recombinant human FGFR1; 0.008 µM in the test on KG-1; 0.009 µM on Recombinant human FGFR2; 0.01 µM against FGFR3 kinase; 0.019 µM in the test on SNU-16; 0.033 µM in the test on RT-112.
Turning to `CONC(=O)c1cc(COc2cnc(Nc3cnn(C)c3)nc2)c(Cl)c(OC)c1` [Compound 185], the IC50 on Recombinant human FGFR1 turned out to be 0.005 µM; in the test on KG-1, 0.002 µM; on Recombinant human FGFR2, 0.003 µM; on FGFR3 kinase it was 0.004 µM; in the test with SNU-16, 0.002 µM; in the test on RT-112, 0.005 µM.
Take `CNC(=O)c1cc(COc2cnc(Nc3ccc(N4C[C@@H](C)N[C@@H](C)C4)cc3)nc2)c(Cl)c(OC)c1` [Compound 186, 4-chloro-3-(((2-((4-((3S,5R)-3,5-dimethylpiperazin-1-yl)phenyl)amino)pyrimidin-5-yl)oxy)methyl)-5-methoxy-N-methylbenzamide]: the 50% inhibitory concentration (IC50) on Recombinant human FGFR1 was 0.005 µM; in the test with KG-1, 0.01 µM; at Recombinant human FGFR2 it was 0.004 µM; against FGFR3 kinase it was 0.005 µM; with SNU-16, 0.007 µM; in the test with RT-112, 0.007 µM.
Turning to `CNC(=O)c1cc(COc2cnc(Nc3ccc(N4CCNCC4)cc3)nc2)c(F)c(OC)c1` [Compound 188], the IC50 was 0.008 µM at Recombinant human FGFR1; 0.02 µM in the test with KG-1; 0.005 µM at Recombinant human FGFR2; 0.01 µM on FGFR3 kinase; 0.006 µM with SNU-16; 0.012 µM in the test on RT-112.
On to `CCN(CC)CCn1cc(Nc2ncc(OCc3cc(C(=O)NC)cc(OC)c3F)cn2)cn1` [Compound 189], for which the IC50 at Recombinant human FGFR1 was 0.023 µM; in the test with KG-1 it was 0.038 µM; on Recombinant human FGFR2, 0.02 µM; against FGFR3 kinase, 0.013 µM; with SNU-16, 0.028 µM; in the test with RT-112 it was 0.023 µM.
Consider `CCN(CC)CCn1cc(Nc2ncc(OCc3cc(C(=O)NC)cc(OC)c3Cl)cn2)cn1` [Compound 190], for which the IC50 on Recombinant human FGFR1 was 0.012 µM; with KG-1, 0.037 µM; on Recombinant human FGFR2, 0.009 µM; on FGFR3 kinase it was 0.007 µM; in the test with SNU-16 it was 0.016 µM; with RT-112, 0.017 µM.
As for `CNC(=O)c1cc(COc2ccc(Nc3ccc(N4C[C@@H](C)N[C@@H](C)C4)cc3)nc2)c(F)c(OC)c1` [Compound 191], the IC50 at Recombinant human FGFR1 amounted to 0.181 µM; in the test with KG-1, 0.647 µM; on Recombinant human FGFR2, 0.068 µM; against FGFR3 kinase, 0.334 µM; in the test on SNU-16, 0.534 µM; in the test on RT-112, 0.54 µM.
Turning to `CNC(=O)c1cc(COc2cnc(Nc3ccc(N4C[C@@H](C)N[C@@H](C)C4)cc3)nc2)c(F)c(OC)c1` [Compound 192], the half-inhibitory concentration (IC50) on Recombinant human FGFR1 came to 0.012 µM; with KG-1 it was 0.008 µM; at Recombinant human FGFR2, 0.006 µM; against FGFR3 kinase, 0.008 µM; with SNU-16, 0.002 µM; with RT-112 it was 0.014 µM.
As to `CNC(=O)c1cc(COc2cnc(Nc3ccc(N4CCNC(C)(C)C4)cc3)nc2)c(F)c(OC)c1` [Compound 193], the IC50 is 0.008 µM at Recombinant human FGFR1; 0.062 µM in the test with KG-1; 0.005 µM on Recombinant human FGFR2; 0.011 µM against FGFR3 kinase; 0.017 µM in the test with SNU-16; 0.021 µM with RT-112.
For the molecule `CNC(=O)c1cc(COc2cnc(Nc3ccc(N4C[C@@H](C)N[C@@H](C)C4)c(C)c3)nc2)c(F)c(OC)c1` [Compound 194], the IC50 was 0.014 µM on Recombinant human FGFR1; 0.06 µM with KG-1; 0.014 µM at Recombinant human FGFR2; 0.02 µM at FGFR3 kinase; 0.031 µM in the test on SNU-16; 0.027 µM in the test with RT-112.
With `CNC(=O)c1cc(COc2cnc(Nc3ccc(N4C[C@@H](C)N[C@@H](C)C4)c(F)c3)nc2)c(F)c(OC)c1` [Compound 195], the IC50 at Recombinant human FGFR1 was 0.012 µM; in the test with KG-1, 0.025 µM; at Recombinant human FGFR2, 0.006 µM; against FGFR3 kinase, 0.012 µM; with SNU-16, 0.016 µM; with RT-112, 0.025 µM.
As to `CNC(=O)c1cc(CCc2cnc(Nc3ccc(N4CCNCC4)cc3)nc2)c(Cl)c(OC)c1` [Compound 196], the IC50 on Recombinant human FGFR1 was found to be 0.006 µM; in the test on KG-1, 0.051 µM; on Recombinant human FGFR2 it was 0.005 µM; at FGFR3 kinase it was 0.009 µM; with SNU-16 it was 0.014 µM; in the test with RT-112, 0.02 µM.
With `CNC(=O)c1cc(COc2cnc(Nc3ccc(N4C[C@@H](C)N[C@@H](C)C4)nc3)nc2)c(Cl)c(OC)c1` [Compound 197], the IC50 was determined as 0.008 µM on Recombinant human FGFR1; 0.026 µM in the test on KG-1; 0.007 µM on Recombinant human FGFR2; 0.009 µM at FGFR3 kinase; 0.008 µM in the test on SNU-16; 0.025 µM with RT-112.
Consider `CNC(=O)c1cc(OC)c(F)c(COc2cnc(Nc3ccc(N4C[C@@H](C)N[C@@H](C)C4)cc3)nc2)c1F` [Compound 199], for which the IC50 on Recombinant human FGFR1 was determined as 0.013 µM; in the test with KG-1, 0.02 µM; at Recombinant human FGFR2 it was 0.007 µM; on FGFR3 kinase, 0.008 µM; in the test on SNU-16, 0.018 µM; in the test with RT-112 it was 0.041 µM.
`CNC(=O)c1cc(CCc2cnc(Nc3ccc(N4CCNC(C)(C)C4)cc3)nc2)c(Cl)c(OC)c1` [Compound 200]: the IC50 on Recombinant human FGFR1 was 0.009 µM; in the test with KG-1, 0.091 µM; on Recombinant human FGFR2, 0.006 µM; against FGFR3 kinase, 0.006 µM; in the test with SNU-16, 0.02 µM; with RT-112 it was 0.034 µM.
Take `CNC(=O)c1cc(COc2cnc(Nc3ccc(N4C[C@@H](C)N[C@@H](C)C4)nc3)nc2)c(F)c(OC)c1` [Compound 201]: the IC50 on Recombinant human FGFR1 is 0.029 µM; in the test with KG-1, 1.1 µM; at Recombinant human FGFR2, 0.012 µM; against FGFR3 kinase, 0.019 µM; in the test on SNU-16, 0.019 µM; in the test on RT-112 it was 0.066 µM.
With `CCn1cc(Nc2ncc(OCc3c(F)c(OC)cc(C(=O)NC)c3F)cn2)cn1` [Compound 203], the IC50 on Recombinant human FGFR1 came to 0.011 µM; with KG-1, 0.011 µM; on Recombinant human FGFR2, 0.008 µM; against FGFR3 kinase, 0.014 µM; with SNU-16, 0.023 µM; in the test on RT-112, 0.037 µM.
As to `CNC(=O)c1cc(CCc2cnc(Nc3ccc(N4C[C@@H](C)N[C@@H](C)C4)c(F)c3)nc2)c(Cl)c(OC)c1` [Compound 204], the IC50 on Recombinant human FGFR1 amounted to 0.009 µM; with KG-1 it was 0.018 µM; on Recombinant human FGFR2, 0.005 µM; at FGFR3 kinase it was 0.008 µM; with SNU-16, 0.007 µM; in the test with RT-112, 0.015 µM.
As to `CCNC(=O)c1cc(COc2cnc(Nc3ccc(N4C[C@@H](C)N[C@@H](C)C4)cc3)nc2)c(F)c(OC)c1` [Compound 205], the IC50 at Recombinant human FGFR1 was 0.036 µM; with KG-1 it was 0.068 µM; on Recombinant human FGFR2, 0.025 µM; against FGFR3 kinase, 0.028 µM; in the test on SNU-16, 0.037 µM; in the test with RT-112 it was 0.097 µM.
